pIC50: −log10 of the molar value.
Assays:
LNCaP = LNCaP reporter assay; type: cell-based; conditions: Homo sapiens
Description: (§1) To meet this need, compounds binding to AR-v7 were identified using the combination of a small molecule microarray (SMM) screen of 50,000 compounds, qPCR, and reporter assays. The SMM was screened against a functional AR-truncate composed of the NTD and DBD (exons 1-3) and therefore targeting these domains specifically. Candidate compounds were further evaluated in a series of assays designed to show specificity to AR-sensitive cell lines.
Compounds of the invention may also be identified via a reporter assay. Reporter assays are commonly used to study signaling pathways, gene expression and regulation at the transcriptional level, and the structure of regulatory elements. In general, a reporter assay comprises a regulatory element of interest (e.g. promoter DNA) along with a reporter gene (e.g., gene encoding a reporter protein) cloned into a vector and transfected into cells. In certain embodiments, a reporter is a protein. In certain embodiments, a reporter is a protein with an easily measureable activity. “Easily measureable activity” (or simply “activity”) can refer to any activity that can be measured through methods known in the art, such as fluorescence, enzymatic activities that generate fluorescent or luminescent products, or indirectly with antibodies. […]

AR-v7 = target: T1, AR-v7 (Homo sapiens, UniProt P10275); assay: small molecule microarray (SMM) screen, binding to AR-v7; conditions: SMM screened against AR-truncate of NTD and DBD (exons 1-3), with qPCR and reporter assays
T1 construct: screened against a functional AR-truncate composed of the NTD and DBD (exons 1-3)
T1 sequence (P10275 1-628 limits assumed): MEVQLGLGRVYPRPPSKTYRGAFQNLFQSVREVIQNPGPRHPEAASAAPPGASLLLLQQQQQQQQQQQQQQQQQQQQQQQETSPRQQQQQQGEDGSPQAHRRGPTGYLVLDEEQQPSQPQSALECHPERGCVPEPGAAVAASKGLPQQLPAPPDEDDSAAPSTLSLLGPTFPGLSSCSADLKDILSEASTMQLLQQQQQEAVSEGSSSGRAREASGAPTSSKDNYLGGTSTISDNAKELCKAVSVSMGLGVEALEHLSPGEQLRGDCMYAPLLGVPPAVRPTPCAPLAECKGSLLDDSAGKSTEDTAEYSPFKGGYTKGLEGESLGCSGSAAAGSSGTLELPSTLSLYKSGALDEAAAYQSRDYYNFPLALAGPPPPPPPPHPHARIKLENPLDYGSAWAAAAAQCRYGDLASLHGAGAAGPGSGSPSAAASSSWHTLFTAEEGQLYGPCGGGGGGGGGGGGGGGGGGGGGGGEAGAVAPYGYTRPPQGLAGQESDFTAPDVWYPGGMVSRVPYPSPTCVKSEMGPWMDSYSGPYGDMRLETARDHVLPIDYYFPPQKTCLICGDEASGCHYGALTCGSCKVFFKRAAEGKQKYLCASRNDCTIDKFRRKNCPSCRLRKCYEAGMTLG
Description: as §1

aggregation monitoring = type: physicochemical; conditions: at IC50 in RPMI, DMSO, or PBS
Experimental: All compounds were evaluated in a reporter gene assay (22Rv1 cell line lentiviral transduced with CMV-firefly luciferase) to monitor transcriptional effects and two cell viability assays (Cell-titer blue; PC3 cell line, an AR insensitive cell line, and LNCaP cell line, an AR sensitive cell line). The compounds were also monitored for aggregation.

prostate cancer cell = prostate cancer cell proliferation, different cancer cell lines; type: cell-based; conditions: 72 hours
PC3 (AR-) cell lines = assay: cell proliferation, PC3; type: cell-based; conditions: 72 hours
DU-145 (AR-) cell lines = assay: cell proliferation, DU-145; type: cell-based; conditions: 72 hours
VCaP (AR+) cell lines = assay: cell proliferation, VCaP; type: cell-based; conditions: 72 hours
LNCaP (AR+) cell lines = assay: cell proliferation, LNCaP; type: cell-based, human; conditions: 72 hours
22Rv1 (AR+) cell lines = assay: cell proliferation, 22Rv1; type: cell-based; conditions: 72 hours

Q: With `O=C(NCCC1C[C@@H]2C=C[C@H]1C2)c1cccc(OC2CCN(C(=O)C3CC3)CC2)c1` (stereo partly drawn) [Compound (1), N-(2-((1S,4S)-bicyclo[2.2.1]hept-5-en-2-yl)ethyl)-3-((1-(cyclopropanecarbonyl)piperidin-4-yl)oxy)benzamide] as the compound, how does the pIC50 (LNCaP) read?
A: 5.27

Q: What about the “binding to AR-v7” value (AR-v7) of the same compound?
A: found to bind to AR-v7

Q: And the formation of aggregates (aggregation monitoring)?
A: does not form aggregates

Q: And the “prostate cancer cell proliferation (relative proliferation, percent confluence)” value (prostate cancer cell)?
A: stagnates prostate cancer cell proliferation

Q: What about the “cell proliferation (percent confluence)” value (PC3 (AR-) cell lines) of the same compound?
A: stagnates prostate cancer cell proliferation

Q: What about the “cell proliferation (percent confluence)” value (DU-145 (AR-) cell lines) of the same compound?
A: stagnates prostate cancer cell proliferation

Q: What about the “cell proliferation (percent confluence)” value (VCaP (AR+) cell lines) of the same compound?
A: stagnates prostate cancer cell proliferation

Q: And the “cell proliferation (percent confluence)” value (LNCaP (AR+) cell lines)?
A: stagnates prostate cancer cell proliferation

Q: And the “cell proliferation (percent confluence)” value (22Rv1 (AR+) cell lines)?
A: stagnates prostate cancer cell proliferation
